# According to US6423689B1, “Peptidyl calcium channel blockers” (Warner-Lambert Company, priority 1997, dated 2002):
# Key:
# [1] = molecular target: T1, L-type Ca2+ channels in A10 cells (Rattus norvegicus, UniProt P22002); assay: Inhibition of L-type calcium flux in A10 cells (FLIPR); assay type: cell-based
# T1 construct: which endogenously expresses L-type calcium channels; host or cells: A10 rat aortic smooth muscle cells
# Description: Measurement of L-type Ca^2+ Channel Blocking Potencies of Compounds in A10 cells
# Calcium flux through voltage-sensitive calcium channels was assessed by time-resolved monitoring of the fluorescence of pre-loaded calcium-sensitive dyes using FLIPR, a fluorescent image plate reader (Molecular Devices Co.). The A10 smooth muscle cell line derived from embryonic thoracic aorta of the DBIX rat (ATCC, CRL-1476) which endogenously expresses L-type calcium channels. The growth media for A10 cells was Ham's F12/DME high glucose (Irvine Scientific, 9052), supplemented with 20% fetal bovine serum (HyClone Labs, A-1115-L), and 1% each of L-glutamine and antibiotic-antimycotic (same source as above).
# Cells were grown to confluency and replated on black-sided 96-well plates (Costar, 3603) for use in FLIPR. Two days after replating, growth media was removed and cells were loaded at 37° C. with 100 μL media containing 1 μM Oregon Green 488 Bapta-1 dye (Molecular Probes, O-6807) for 1 to 3 hours. The dye-containing media was then washed away with buffer (composition in mM: 1.25 CaCl2, 1.2 MgSO4, 11 glucose, 10 HEPES, 3.0 KCl, 137.0 NaCl, pH 7.4 with Tris base) in a Denley Cellwash (Labsystems, CW018B). The residual buffer volume was adjusted to 50 μL. A 5 minute drug-pre-incubation period at 35° C. was initiated when 50 μL of drug-containing buffer was pipetted into the cell plate with the 96-well pipettor integrated in the FLIPR apparatus. Fluorescent counts were monitored at 20 second intervals for 360 seconds, beginning 60 seconds prior to the delivery of drug-containing buffer. Following drug addition, 100 μL aliquots of a high K^+, depolarizing stimulus (composition in mM: 1.25 CaCl2, 1.2 MgSO4, 11 glucose, 10 HEPES, 140.0 KCl, pH 7.4 with Tris base) were added to each well and fluorescence was monitored at 1 second intervals for 120 seconds, beginning 10 seconds prior to the stimulus addition. CCD camera exposure time was 0.4 seconds, laser excitation was at 488 nm with a power of 0.2-0.5W, and a 510 to 560 nm bandpass interference filter preceded the camera.
# Data was analyzed as a summation of fluorescent counts above basal during the stimulation period (an approximation of area under the curve), after normalizing the data with a spatial uniformity correction (for variations in laser illumination and cell density) and a negative control correction (zero calcium increase defined as the fluorescence reading in the presence of saturating pharmacologic block of the respective calcium channel). Drug effects were expressed as percent inhibition of fluorescence from an average of 8 K^+-stimulated wells which were pre-treated in the drug incubation period with buffer only.
# In the A10 cells, the pharmacologic agent used to define zero calcium influx was nitrendipine (RBI, N-144), at a final concentration of 1.0×10^−6 M.
# [2] = molecular target: T2, N-type Ca2+ channels in IMR-32 cells (Homo sapiens, UniProt Q00975); assay: Inhibition of N-type calcium flux in IMR-32 cells (Indo-1 fluorescence, nitrendipine present); assay type: cell-based; conditions: for IC50: IMR-32 cells, 5 μM nitrendipine, K+ depolarization; for inhibition at 1 µM / inhibition at 10 µM: IMR-32
# T2 construct: host or cells: IMR-32 cells, differentiated with dibutyryl cAMP and bromodeoxyuridine
# Outline: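 Differentiated IMR-32 cells (7–13 days) were loaded with 5 μM Indo-1 AM, preincubated with compound for 10 min at 30° C, and depolarized with KCl/CaCl2 stimulation solution, with 5 μM nitrendipine blocking L-channels. Peak-minus-basal 400/490 nm emission ratio was plotted against drug concentration, and IC50 came from four-parameter logistic fits.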
# T2 sequence (Q00975 whole entry): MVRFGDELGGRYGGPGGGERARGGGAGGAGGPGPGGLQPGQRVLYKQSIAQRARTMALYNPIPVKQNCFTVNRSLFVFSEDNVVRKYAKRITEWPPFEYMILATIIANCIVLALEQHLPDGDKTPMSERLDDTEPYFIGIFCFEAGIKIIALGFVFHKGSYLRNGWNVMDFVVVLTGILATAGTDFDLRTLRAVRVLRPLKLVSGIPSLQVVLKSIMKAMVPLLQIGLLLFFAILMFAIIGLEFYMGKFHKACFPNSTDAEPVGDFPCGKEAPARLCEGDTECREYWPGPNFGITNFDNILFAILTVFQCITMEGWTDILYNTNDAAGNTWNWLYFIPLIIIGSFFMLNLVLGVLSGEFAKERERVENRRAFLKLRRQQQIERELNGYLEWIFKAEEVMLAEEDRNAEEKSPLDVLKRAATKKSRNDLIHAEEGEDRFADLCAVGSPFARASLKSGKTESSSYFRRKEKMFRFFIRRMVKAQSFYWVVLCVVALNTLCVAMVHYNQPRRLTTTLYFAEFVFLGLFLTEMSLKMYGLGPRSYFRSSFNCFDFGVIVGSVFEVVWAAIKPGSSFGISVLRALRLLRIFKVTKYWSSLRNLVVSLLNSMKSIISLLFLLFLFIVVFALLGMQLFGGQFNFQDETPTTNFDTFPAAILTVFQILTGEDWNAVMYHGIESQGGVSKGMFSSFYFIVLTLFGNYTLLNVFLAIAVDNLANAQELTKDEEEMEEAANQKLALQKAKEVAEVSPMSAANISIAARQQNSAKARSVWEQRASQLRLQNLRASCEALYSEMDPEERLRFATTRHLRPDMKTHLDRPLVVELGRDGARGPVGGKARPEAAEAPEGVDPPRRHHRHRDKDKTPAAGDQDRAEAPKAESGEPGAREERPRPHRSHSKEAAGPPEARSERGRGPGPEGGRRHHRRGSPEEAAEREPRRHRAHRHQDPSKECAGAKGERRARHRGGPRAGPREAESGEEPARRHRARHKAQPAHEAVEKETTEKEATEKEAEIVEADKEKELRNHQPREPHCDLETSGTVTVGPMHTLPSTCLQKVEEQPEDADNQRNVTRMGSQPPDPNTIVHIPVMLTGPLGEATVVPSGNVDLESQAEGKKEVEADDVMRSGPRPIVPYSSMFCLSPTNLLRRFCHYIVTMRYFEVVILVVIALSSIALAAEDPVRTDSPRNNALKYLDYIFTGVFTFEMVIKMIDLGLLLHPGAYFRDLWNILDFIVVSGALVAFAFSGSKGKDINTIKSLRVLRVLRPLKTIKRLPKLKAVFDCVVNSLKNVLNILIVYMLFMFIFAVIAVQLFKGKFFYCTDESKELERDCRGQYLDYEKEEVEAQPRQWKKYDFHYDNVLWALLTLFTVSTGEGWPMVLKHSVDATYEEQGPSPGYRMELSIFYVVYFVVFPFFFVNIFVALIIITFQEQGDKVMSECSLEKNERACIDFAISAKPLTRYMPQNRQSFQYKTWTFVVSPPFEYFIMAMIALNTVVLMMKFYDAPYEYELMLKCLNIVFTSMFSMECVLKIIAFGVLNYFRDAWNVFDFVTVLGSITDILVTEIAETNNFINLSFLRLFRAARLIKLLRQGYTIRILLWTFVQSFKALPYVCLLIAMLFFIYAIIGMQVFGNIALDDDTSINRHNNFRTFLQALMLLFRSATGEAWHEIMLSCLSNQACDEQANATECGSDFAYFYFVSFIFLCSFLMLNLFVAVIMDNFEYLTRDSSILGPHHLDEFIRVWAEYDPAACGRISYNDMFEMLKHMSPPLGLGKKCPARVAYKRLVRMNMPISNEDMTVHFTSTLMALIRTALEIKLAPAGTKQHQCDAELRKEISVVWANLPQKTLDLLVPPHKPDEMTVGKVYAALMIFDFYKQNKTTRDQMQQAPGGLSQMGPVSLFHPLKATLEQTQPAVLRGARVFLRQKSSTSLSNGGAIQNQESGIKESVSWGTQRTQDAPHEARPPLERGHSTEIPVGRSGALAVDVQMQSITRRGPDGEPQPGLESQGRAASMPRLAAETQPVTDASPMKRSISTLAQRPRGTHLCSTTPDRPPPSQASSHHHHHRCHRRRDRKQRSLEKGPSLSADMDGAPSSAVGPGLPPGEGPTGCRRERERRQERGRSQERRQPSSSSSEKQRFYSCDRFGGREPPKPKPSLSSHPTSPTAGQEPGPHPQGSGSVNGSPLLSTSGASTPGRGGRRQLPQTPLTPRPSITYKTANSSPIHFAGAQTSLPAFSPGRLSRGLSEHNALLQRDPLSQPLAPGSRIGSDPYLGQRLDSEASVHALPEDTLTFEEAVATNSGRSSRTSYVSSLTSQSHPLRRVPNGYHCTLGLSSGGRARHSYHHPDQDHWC
# T2 sequence (P54289 25-956 partner limits assumed): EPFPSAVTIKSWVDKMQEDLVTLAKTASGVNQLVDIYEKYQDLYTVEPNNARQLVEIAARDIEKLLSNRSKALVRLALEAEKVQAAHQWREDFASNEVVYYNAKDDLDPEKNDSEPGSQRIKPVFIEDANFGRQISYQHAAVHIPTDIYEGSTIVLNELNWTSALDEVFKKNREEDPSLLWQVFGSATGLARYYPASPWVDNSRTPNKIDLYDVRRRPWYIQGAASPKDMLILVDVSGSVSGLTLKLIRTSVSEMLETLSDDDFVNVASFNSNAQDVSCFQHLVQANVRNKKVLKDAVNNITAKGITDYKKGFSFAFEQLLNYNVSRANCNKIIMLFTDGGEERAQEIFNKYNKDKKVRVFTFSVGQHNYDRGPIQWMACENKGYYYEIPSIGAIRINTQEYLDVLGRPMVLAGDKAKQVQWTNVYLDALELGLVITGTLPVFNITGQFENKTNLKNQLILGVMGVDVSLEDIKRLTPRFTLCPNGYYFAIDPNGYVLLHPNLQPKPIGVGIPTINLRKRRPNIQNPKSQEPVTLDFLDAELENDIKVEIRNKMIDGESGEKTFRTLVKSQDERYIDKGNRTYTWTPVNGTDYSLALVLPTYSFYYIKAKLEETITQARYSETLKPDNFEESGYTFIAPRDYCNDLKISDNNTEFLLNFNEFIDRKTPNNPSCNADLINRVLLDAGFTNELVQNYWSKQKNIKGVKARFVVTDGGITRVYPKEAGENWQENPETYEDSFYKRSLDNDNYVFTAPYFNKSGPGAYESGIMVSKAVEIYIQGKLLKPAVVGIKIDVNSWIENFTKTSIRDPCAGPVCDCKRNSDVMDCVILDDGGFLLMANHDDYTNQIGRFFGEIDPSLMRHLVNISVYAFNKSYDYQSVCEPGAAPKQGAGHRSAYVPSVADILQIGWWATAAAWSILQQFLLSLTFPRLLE
# T2 sequence (P54289 957-1103 partner limits assumed): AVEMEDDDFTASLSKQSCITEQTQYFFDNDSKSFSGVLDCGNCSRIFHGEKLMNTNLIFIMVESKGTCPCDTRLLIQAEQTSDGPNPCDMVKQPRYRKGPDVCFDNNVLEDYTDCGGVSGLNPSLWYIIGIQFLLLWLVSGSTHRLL
# T2 sequence (P54284 whole entry partner): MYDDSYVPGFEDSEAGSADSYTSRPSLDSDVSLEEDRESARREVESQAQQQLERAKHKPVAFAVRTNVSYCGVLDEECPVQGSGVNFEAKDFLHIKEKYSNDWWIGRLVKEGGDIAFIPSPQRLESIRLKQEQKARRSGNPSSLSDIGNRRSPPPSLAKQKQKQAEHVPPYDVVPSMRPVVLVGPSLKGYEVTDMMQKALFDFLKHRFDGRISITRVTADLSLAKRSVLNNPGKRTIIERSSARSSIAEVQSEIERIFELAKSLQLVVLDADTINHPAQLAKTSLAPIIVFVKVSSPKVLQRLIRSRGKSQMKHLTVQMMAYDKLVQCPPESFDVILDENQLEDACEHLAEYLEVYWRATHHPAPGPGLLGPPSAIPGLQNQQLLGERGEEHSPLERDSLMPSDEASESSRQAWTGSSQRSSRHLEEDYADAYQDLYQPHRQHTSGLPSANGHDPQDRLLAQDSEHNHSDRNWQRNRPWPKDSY
SMILES,IC50 [1],Inhibition of Calcium Flux in IMR-32 Cells % Inhibition at 1 μM ([2]; 1 μM),Inhibition of Calcium Flux in IMR-32 Cells % Inhibition at 10 μM ([2]; 10 μM),IC50 [2],inhibition at 1 µM [2],inhibition at 10 µM [2]
"CC(C)(C)OC(=O)[C@H](Cc1ccc(OCc2ccccc2)cc1)NC(=O)CNC(=O)N1CCCCCC1 (stereo in doubt) [Example 8, [S-(R*,R*)]-2-{2-[(Azepane-1-carbonyl)-amino]-acetylamino}-3-(4-benzyloxy-phenyl)-propionic acid tert-butyl ester]",180 nM,29%,86%,2400 nM,–,–
CC(C)C[C@H](NC(=O)N1CCCCCC1)C(=O)N[C@@H](Cc1ccc(OCc2ccccc2)cc1)C(=O)OC(C)(C)C [Example 1],1720 nM,–,–,350 nM,71%,95%
CC(C)(C)OC(=O)[C@H](Cc1ccc(OCc2ccccc2)cc1)NC(=O)[C@H](Cc1ccccc1)NC(=O)N1CCCCCC1 [Example 16],280 nM,–,–,1100 nM,44%,92%
"CC(C)C[C@H](NC(=O)N1CCCCCC1)C(=O)N[C@@H](Cc1ccc(OCc2ccccc2)cc1)C(N)=O [Example 21, [S-(R*,R*)]-Azepane-1-carboxylic acid {1-[2-(4-benzyloxy-phenyl)-1-carbamoyl-ethylcarbamoyl]-3-methyl-butyl}-amide]",1600 nM,–,–,2700 nM,26%,83%
"CC(C)C[C@H](NC(=O)N1CCCCCC1)C(=O)N[C@@H](Cc1ccc(OCc2ccccn2)cc1)C(=O)OC(C)(C)C [Example 25, [S-(R*,R*)]-2-{2-[(Azepane-1-carbonyl)-amino]-4-methyl-pentanoylamino}-3-[4-(pyridin-2-ylmethoxy)-phenyl]-propionic acid tert-butyl ester]",1700 nM,–,–,2090 nM,32%,82%
"CC(C)C[C@H](NC(=O)N1CCCCCC1)C(=O)N[C@@H](Cc1ccc(OCc2ccncc2)cc1)C(=O)OC(C)(C)C [Example 26, [S-(R*,R*)]-2-{2-[(Azepane-1-carbonyl)-amino]-4-methyl-pentanoylamino}-3-[4-(pyridin-4-ylmethoxy)-phenyl]-propionic acid tert-butyl ester]",3000 nM,–,–,1600 nM,44%,84%
"CC(C)C[C@H](NC(=O)N1CCCCCC1)C(=O)N[C@@H](Cc1ccc(C#CC2(O)CCCCC2)cc1)C(=O)NC(C)(C)C [Example 138, [S-(R*,R*)]-Azepane-1-carboxylic acid (1-({-tert-butylcarbamoyl-2-[4-(1-hydroxy-cyclohexylethynyl)-phenyl]-ethylcarbamoyl}-3-methyl-butyl)-amide]",1600 nM,–,–,–,23%,67%
"CC(C)C[C@H](NC(=O)N1CCCCCC1)C(=O)N[C@@H](Cc1ccc(C=Cc2ccccc2)cc1)C(=O)NC(C)(C)C [Example 141, [S-(R*,R*)]-Azepane-1-carboxylic acid {1-[1-tert-butylcarbamoyl-2-(4-styryl-phenyl)-ethylcarbamoyl]-3-methyl-butyl}-amide]",410 nM,–,–,–,37%,66%
"CC(C)C[C@H](NC(=O)N1CCCCCC1)C(=O)N[C@@H](Cc1ccc(OCc2ccccc2)cc1)C(=O)NCCCn1ccnc1 [Example 237, [S-(R*,R*)]-Azepane-1-carboxylic acid {(1-[2-(4-benzyloxy phenyl)-1-(3-imidazol-1-yl-propylcarbamoyl)-ethylcarbamoyl]-3-methyl-butyl}-amide]",2200 nM,–,–,960 nM,52%,93%
